Activity calls are given as the source filed them. The rule behind the calls is not given here.
Tests used:
[1] = test system: Lewis lung carcinoma cell line; assay: Antitumor activity against Lewis lung carcinoma cells xenografted in C57BL/6 mouse model at 5 mg/kg, ip administered daily for 8 days relative to control; assay type: functional; conditions: 192 h, time 8 day, read-out: TGI
[2] = molecular target: COP9 signalosome complex subunit 5 (Homo sapiens) (UniProt Q92905); assay: Induction of PD-L1 degradation in […] cells at 10 uM by Western blot analysis; assay type: cell-based; conditions: Lewis lung carcinoma cell line, time <= 36.0 hrs
Sequence of COP9 signalosome complex subunit 5 (Homo sapiens) (Q92905 2-334 limits assumed, one chain of several): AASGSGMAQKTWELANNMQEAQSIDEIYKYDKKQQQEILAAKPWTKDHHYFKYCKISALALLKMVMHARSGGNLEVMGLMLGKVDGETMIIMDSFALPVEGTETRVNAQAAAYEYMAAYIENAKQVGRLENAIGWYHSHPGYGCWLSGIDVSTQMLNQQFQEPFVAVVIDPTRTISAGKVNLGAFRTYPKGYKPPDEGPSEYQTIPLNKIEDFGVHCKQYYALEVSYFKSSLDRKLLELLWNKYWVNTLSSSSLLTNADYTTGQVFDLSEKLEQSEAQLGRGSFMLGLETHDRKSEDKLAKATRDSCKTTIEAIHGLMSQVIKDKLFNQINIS

[3] = molecular target: COP9 signalosome complex subunit 5 (Homo sapiens) (UniProt Q92905); assay: Induction of PD-L1 degradation in human PC-9 cells incubated for 24 hrs by Western blot analysis; assay type: cell-based; conditions: dose <= 100.0 µM
[4] = test system: Lewis lung carcinoma cell line; assay: Antitumor T-cell immune response in Lewis lung carcinoma cells xenografted in C57BL/6 mouse model assessed as increase in GrB level in tumor at 10 mg/kg, ip administered daily for 10 days by ELISA; assay type: functional, organism-based; conditions: time 10.0 day
HCC827 = assay: Effect on IFN-gamma-induced PD-L1 mRNA expression in human HCC827 cells at 10 uM by qRT-PCR analysis; assay type: functional, cell-based
[5] = molecular target: COP9 signalosome complex subunit 5 (Homo sapiens) (UniProt Q92905); assay: Induction of PD-L1 degradation in human NCI-H460 cells at 10 uM incubated for 24 hrs by Western blot analysis; assay type: cell-based
HEK-293T = assay: Antiproliferative activity against HEK293T cells at 10 uM incubated for 4 days; assay type: toxicity, cell-based; conditions: human, 96 h, time 4 day
PC-9 [6] = assay: Antiproliferative activity against human PC-9 cells at 10 uM measured after 4 days by MTT assay; assay type: functional, cell-based; conditions: time 4.0 day
[7] = test system: Lewis lung carcinoma cell line; assay: Anticancer activity against Lewis lung carcinoma cells measured after 3 days by MTT assay; assay type: functional, cell-based; conditions: Mus musculus, 72 h
[8] = molecular target: COP9 signalosome complex subunit 5 (Homo sapiens) (UniProt Q92905); assay: Binding affinity to CSN5 in NCI-H460 cell lysate by Western blot analysis; assay type: subcellular
[9] = Drug uptake in human PC-9 cells at 10 uM by fluorescence microscopy; assay type: ADME, cell-based; conditions: pc-9, 10 µM
[10] = molecular target: COP9 signalosome complex subunit 5 (Homo sapiens) (UniProt Q92905); assay: Induction of PD-L1 degradation in human PC-9 cells assessed as reduction in green signal at 10 uM incubated for 24 hrs by immunofluorescence staining based analysis; assay type: cell-based
PC-9 [11] = assay: Effect on PD-L1 mRNA level in human PC-9 cells at 10 uM incubated for 24 hrs by qRT-PCR analysis; assay type: functional, cell-based
[12] = Toxicity in C57BL/6 mouse model xenografted with […] cells assessed as change in ALT level at 10 mg/kg, ip administered daily for 10 days; assay type: organism-based, Blood; conditions: in vivo, 240 h, time 10 day
[13] = Toxicity in C57BL/6 mouse model xenografted with […] cells assessed as obvious damage in spleen at 10 mg/kg, ip administered daily for 10 days by H and E staining based analysis; assay type: organism-based; conditions: in vivo, 240 h, time 10 day
[14] = test system: Lewis lung carcinoma cell line; assay: Anticancer activity against Lewis lung carcinoma cells xenografted in C57BL/6 mouse model assessed as decrease in Ki-67 level at 10 mg/kg, ip administered daily for 10 days by IHC analysis; assay type: functional, organism-based; conditions: time 10.0 day
[15] = molecular target: COP9 signalosome complex subunit 5 (Homo sapiens) (UniProt Q92905); assay: Induction of PD-L1 degradation in […] cells incubated for 24 hrs by Western blot analysis; assay type: cell-based; conditions: Lewis lung carcinoma cell line, dose <= 100.0 µM
[16] = molecular target: COP9 signalosome complex subunit 5 (Homo sapiens) (UniProt Q92905); assay: Induction of PD-L1 degradation in human NCI-H460 cells assessed as PD-L1 ubiquitination by Western blot analysis; assay type: cell-based
[17] = test system: Lewis lung carcinoma cell line; assay: Antitumor T-cell immune response in Lewis lung carcinoma cells xenografted in C57BL/6 mouse model assessed as increase in TNF-alpha level in tumor at 10 mg/kg, ip administered daily for 10 days by ELISA; assay type: functional, organism-based; conditions: time 10.0 day
[18] = test system: Lewis lung carcinoma cell line; assay: Anticancer activity against Lewis lung carcinoma cells xenografted in C57BL/6 mouse model assessed as tumor growth inhibition at 10 mg/kg, ip administered daily for 10 days; assay type: functional, organism-based; conditions: time 10.0 day
[19] = Toxicity in C57BL/6 mouse model xenografted with […] cells assessed as obvious damage in liver at 10 mg/kg, ip administered daily for 10 days by H and E staining based analysis; assay type: organism-based; conditions: in vivo, 240 h, time 10 day
[20] = molecular target: COP9 signalosome complex subunit 5 (Homo sapiens) (UniProt Q92905); assay: Induction of PD-L1 degradation in human NCI-H460 cells upto 20 uM in presence of MG132 by Western blot analysis; assay type: cell-based
[21] = test system: Lewis lung carcinoma cell line; assay: Antitumor T-cell immune response in Lewis lung carcinoma cells xenografted in C57BL/6 mouse model assessed as increase in ratio of CD8+ to CD4+ T cells in tumor at 5 mg/kg, ip administered daily for 8 days by flow cytometry; assay type: functional, organism-based; conditions: time 8.0 day
NCI-H460 [22] = assay: Inhibition of cell survival of human NCI-H460 cells co-cultivated with activated T cells at 10 uM incubated for 2 days by crystal violet staining based analysis; assay type: functional; conditions: time 2.0 day
[23] = molecular target: COP9 signalosome complex subunit 5 (Homo sapiens) (UniProt Q92905); assay: Induction of PD-L1 degradation in human NCI-H460 cells at 10 uM pretreated with compound followed by CHX incubation upto 8 hrs by Western blot analysis; assay type: cell-based
[24] = molecular target: COP9 signalosome complex subunit 5 (Homo sapiens) (UniProt Q92905); assay: Induction of IFN-gamma-induced PD-L1 degradation in human A549 cells at 10 uM incubated for 24 hrs by Western blot analysis; assay type: cell-based
[25] = Toxicity in C57BL/6 mouse model xenografted with […] cells assessed as change in BUN level at 10 mg/kg, ip administered daily for 10 days; assay type: organism-based, Blood; conditions: in vivo, 240 h, time 10 day
NCI-H460 [26] = assay: Effect on PD-L1 mRNA level in human NCI-H460 cells at 10 uM incubated for 24 hrs by qRT-PCR analysis; assay type: functional, cell-based
[27] = Antiproliferative activity against human HTori-3 cells at 10 uM incubated for 4 days; assay type: toxicity, cell-based; conditions: htori-3, 96 h, time 4 day
NCI-H460 [28] = assay: Antiproliferative activity against human NCI-H460 cells at 10 uM measured after 4 days by MTT assay; assay type: functional, cell-based; conditions: time 4.0 day
[29] = test system: Lewis lung carcinoma cell line; assay: Antitumor T-cell immune response in Lewis lung carcinoma cells xenografted in C57BL/6 mouse model assessed as increase in ratio of CD8+ to CD4+ T cells in tumor at 10 mg/kg, ip administered daily for 10 days by flow cytometry; assay type: functional, organism-based; conditions: time 10.0 day
[30] = molecular target: COP9 signalosome complex subunit 5 (Homo sapiens) (UniProt Q92905); assay: Induction of PD-L1 degradation in human PC-9 cells at 10 uM by Western blot analysis; assay type: cell-based; conditions: time <= 36.0 hrs
[31] = molecular target: COP9 signalosome complex subunit 5 (Homo sapiens) (UniProt Q92905); assay: Induction of PD-L1 degradation in human NCI-H460 cells upto 40 uM in presence of chloroquine by Western blot analysis; assay type: cell-based
A549 = assay: Effect on IFN-gamma-induced PD-L1 mRNA expression in human A549 cells at 10 uM by qRT-PCR analysis; assay type: functional, cell-based
[32] = Toxicity in C57BL/6 mouse model xenografted with […] cells assessed as obvious damage in heart at 10 mg/kg, ip administered daily for 10 days by H and E staining based analysis; assay type: organism-based; conditions: in vivo, 240 h, time 10 day
[33] = molecular target: COP9 signalosome complex subunit 5 (Homo sapiens) (UniProt Q92905); assay: Induction of PD-L1 degradation in human NCI-H460 cells incubated for 24 hrs by Western blot analysis; assay type: cell-based; conditions: dose <= 100.0 µM
[34] = test system: Lewis lung carcinoma cell line; assay: Antiproliferative activity against Lewis lung carcinoma cells at 10 uM measured after 4 days by MTT assay; assay type: functional, cell-based; conditions: Mus musculus, time 4.0 day
[35] = molecular target: COP9 signalosome complex subunit 5 (Homo sapiens) (UniProt Q92905); assay: Induction of PD-L1 degradation in human NCI-H460 cells overexpressing CSN5 by Western blot analysis; assay type: cell-based
Lewis lung carcinoma = assay: Effect on PD-L1 mRNA level in Lewis lung carcinoma cells at 10 uM incubated for 24 hrs by qRT-PCR analysis; assay type: functional, cell-based; conditions: Mus musculus
3T3-L1 = assay: Antiproliferative activity against mouse 3T3-L1 cells at 10 uM incubated for 4 days; assay type: toxicity, cell-based; conditions: 3t3-l1, 96 h, time 4 day

In the case of `COc1cc2c(cc1OC)-c1cc3ccc(OC)c(OCCN)c3c[n+]1CC2.[Cl-]`, the inhibition in vivo at 5 mg/kg [1] is reported as 66%, the Activity [2] is reported as “Time-dependent-effect” and the Activity [3] is reported as “Dose-dependent-effect”. For the same molecule, the Activity [4] was “Active”, the Activity (HCC827) was “inactive” and the Activity [5] was “Active; Most Effective Compound Among Pmt-O9 Derivatives”. The Activity (HEK-293T) was “Non-toxic”, the Activity (PC-9 [6]) was “inactive” and the IC50 [7] was 122 µM. The Activity [8] was “Active”, the Drug uptake [9] was “Time-dependent-effect” and the Activity [10] was “Active”. For the same molecule, the Activity (PC-9 [11]) was “inactive”, the Activity [12] was “Non-toxic” and the Activity [13] was “Non-toxic”. For the same molecule, the Activity [14] was “Active”, the Activity [15] was “Dose-dependent-effect” and the Activity [16] was “Active”. The Activity [17] was “Active”, the Activity [18] was “Active” and the Activity [19] was “Non-toxic”. The Activity [20] was “inactive”, the Activity [21] was “Active” and the inhibition (NCI-H460 [22]) was “Active”. For the same molecule, the Activity [23] was “inactive”, the Activity [24] was “Active” and the Activity [25] was “Non-toxic”. For the same molecule, the Activity (NCI-H460 [26]) was “inactive”, the Activity [27] was “Non-toxic” and the Activity (NCI-H460 [28]) was “inactive”. The Activity [29] was “Active; Highest Enhancement Of Ratio Observed”, the Activity [30] was “Time-dependent-effect” and the Activity [31] was “Active”. For the same molecule, the Activity (A549) was “inactive”, the Activity [32] was “Non-toxic” and the Activity [33] was “Dose-dependent-effect”. The Activity [34] was “inactive”, the Activity [35] was “inactive” and the Activity (Lewis lung carcinoma) was “inactive”. For the same molecule, the Activity (3T3-L1) was “Non-toxic”.

— ChEMBL document CHEMBL6092191, “Advancing Cancer Immunotherapy through Engineering New PD-L1 Degraders: A Comprehensive Study from Small Molecules to PD-L1-Specific Peptide-Drug Conjugates” (J Med Chem, 2024)
